Assay results taken from US8541404B2, “Inhibitors of the human aldosterone synthase CYP11B2” (ElexoPharm GmbH, priority 2009, dated 2013).
Where a name gives a salt, the structure may show the parent alone.

Point of comparison: `O=C1CCc2cc(-c3cncc4ccccc34)c(F)cc2N1` [Example 49], melting point 281 °C. Against it:
- O=C1CCc2cc(-c3cncc4ccccc34)cc3c2N1CC3 [Example 18, 8-Isoquinolin-4-yl-1,2,5,6-tetrahydro-pyrrolo[3,2,1-ij]quinolin-4-one] — lower, 185 °C
- O=C1CCc2cc(-c3cncc(F)c3)cc3c2N1CC3 [Example 27, 8-(5-Fluoropyridin-3-yl)-1,2,5,6-tetrahydro-pyrrolo[3,2,1-ij]quinolin-4-one] — lower, 158 °C
- O=C1CCc2cc(-c3cccnc3)cc3c2N1CC3 [Example 11, 8-Pyridin-3-yl-1,2,5,6-tetrahydro-pyrrolo[3,2,1-ij]quinoline-4-one] — lower, 152 °C
- O=C(c1cccnc1)c1cc2c3c(c1)CCN3C(=O)CC2 [Example 32, 8-(Pyridine-3-carbonyl)-1,2,5,6-tetrahydro-pyrrolo[3,2,1-ij]quinolin-4-one] — lower, 147 °C
- O=C1CCc2cc(-c3ccncc3)cc3c2N1CC3 [Example 29, 8-Pyridin-4-yl-1,2,5,6-tetrahydro-pyrrolo[3,2,1-ij]quinolin-4-one] — lower, 174 °C
- O=C1COc2cc(-c3cccnc3)ccc2N1 [Example 53, 7-(Pyridin-3-yl)-2H-benzo[b][1,4]oxazin-3(4H)-one] — lower, 256 °C
- O=C1CCc2cc(-c3cncc(-c4cccc(F)c4)c3)cc3c2N1CC3 [Example 37, 8-[5-(3-Fluorophenyl)-pyridin-3-yl]-1,2,5,6-tetrahydro-pyrrolo[3,2,1-ij]quinolin-4-one] — lower, 181 °C
- CC(C)Oc1cncc(-c2cc3c4c(c2)CCN4C(=O)CC3)c1 [Example 34, 8-(5-Isopropoxypyridin-3-yl)-1,2,5,6-tetrahydro-pyrrolo[3,2,1-ij]quinolin-4-one] — lower, 155 °C
- O=C1CCc2cc(-c3cncc(-c4ccc(F)cc4)c3)cc3c2N1CC3 [Example 36, 8-[5-(4-Fluorophenyl)-pyridin-3-yl]-1,2,5,6-tetrahydro-pyrrolo[3,2,1-ij]quinolin-4-one] — lower, 233 °C
- CC1(C)CC(=O)N2CCc3cc(-c4cccnc4)cc1c32 [Example 24, 6,6-Dimethyl-8-pyridin-3-yl-1,2,5,6-tetrahydro-pyrrolo[3,2,1-ij]quinolin-4-one] — lower, 180 °C
- Fc1cc(-c2cccnc2)cc2c1NC(=S)CC2 [Example 51] — lower, 235 °C
- O=C1CCc2cc(-c3cccnc3)cc3c2N1CCC3 [Example 16, 9-Pyridin-3-yl-1,2,6,7-tetrahydro-5H-pyrido[3,2,1-ij]quinolin-3-one] — lower, 123 °C
- COc1cncc(-c2ccc3c(c2)CCC(=O)N3)c1 [Example 4, 6-(5-Methoxypyridin-3-yl)-3,4-dihydro-1H-quinolin-2-one] — lower, 215 °C
- O=C1COc2cc(-c3cncc4ccccc34)ccc2N1 [Example 55, 7-(Isoquinolin-4-yl)-2H-benzo[b][1,4]oxazin-3(4H)-one] — lower, 266 °C
- O=C1CCc2cc(-c3cccnc3)cc(F)c2N1 [Example 46] — lower, 203 °C
- O=C(c1ccncc1)c1cc2c3c(c1)CCN3C(=O)CC2 [Example 31, 8-(Pyridine-4-carbonyl)-1,2,5,6-tetrahydro-pyrrolo[3,2,1-ij]quinolin-4-one] — lower, 184 °C
- O=C1CCc2cc(-c3cccnc3)c(F)cc2N1 [Example 47] — lower, 228 °C
- O=C1CCc2cc(-c3cccnc3)cc([N+](=O)[O-])c2N1 [Example 13, 8-Nitro-6-pyridin-3-yl-3,4-dihydro-1H-quinolin-2-one] — lower, 189 °C
- O=C1CCc2cc(-c3cccnc3)c(O)cc2N1 [Example 50] — higher, 298 °C
- O=C1CCc2cc(-c3cncnc3)ccc2N1 [Example 21, 6-Pyrimidin-5-yl-3,4-dihydro-1H-quinolin-2-one] — lower, 233 °C
- S=C1CCc2cc(-c3cccnc3)cc3c2N1CC3 (as salt: HCl) [Example 22, 8-Pyridin-3-yl-1,2,5,6-tetrahydro-pyrrolo[3,2,1-ij]quinoline-4-thione] — higher, 283 °C
- O=C1CCc2cc(-c3cncc(C(F)(F)F)c3)cc3c2N1CC3 [Example 26, 8-(5-Trifluoromethylpyridin-3-yl)-1,2,5,6-tetrahydro-pyrrolo[3,2,1-ij]quinolin-4-one] — lower, 212 °C
- CCC(c1cc2c3c(c1)CCN3C(=O)CC2)n1ccnc1 (centres unmarked) [Example 60, 8-(1-(1H-imidazol-1-yl)propyl)-1,2,5,6-tetrahydropyrrolo[3,2,1-ij]quinolin-4-one] — lower, 195 °C
- O=C1CCc2cc(-c3cncc(-c4ccccc4)c3)cc3c2N1CC3 [Example 33, 8-(5-Phenylpyridin-3-yl)-1,2,5,6-tetrahydro-pyrrolo[3,2,1-ij]quinolin-4-one] — lower, 189 °C
- COc1cncc(-c2cc3c4c(c2)CCN4C(=O)CC3)c1 [Example 17, 8-(5-Methoxypyridin-3-yl)-1,2,5,6-tetrahydro-pyrrolo[3,2,1-ij]quinolin-4-one] — lower, 172 °C
- CC(C)N1C(=O)CCc2cc(-c3cccnc3)ccc21 [Example 10, 1-Isopropyl-6-pyridin-3-yl-3,4-dihydro-1H-quinolin-2-one] — lower, 101 °C
- S=C1CCc2cc(-c3cccnc3)cc(Cl)c2N1 [Example 15, 8-Chloro-6-pyridin-3-yl-3,4-dihydro-1H-quinoline-2-thione] — lower, 175 °C
- O=C1CCc2cc(-c3cncc4ccccc34)cc(F)c2N1 [Example 48, 8-Fluoro-6-isoquinolin-4-yl-3-yl-3,4,4a,8a-tetrahydro-1H-quinolin-2-one] — lower, 202 °C
- CC(c1cc2c3c(c1)CCN3C(=O)CC2)n1ccnc1 (centres unmarked) [Example 35, 8-(1-Imidazol-1-yl-ethyl)-1,2,5,6-tetrahydro-pyrrolo[3,2,1-ij]quinolin-4-one] — lower, 197 °C
- Fc1cc2c(cc1-c1cccnc1)CCC(=S)N2 [Example 52] — lower, 248 °C
- CN1C(=O)CCc2cc(-c3cccnc3)ccc21 [Example 2, 1-Methyl-6-pyridin-3-yl-3,4-dihydro-1H-quinolin-2-one] — lower, 101 °C
- O=C1CCc2cc(-c3cncnc3)cc3c2N1CC3 [Example 30, 8-Pyrimidin-5-yl-1,2,5,6-tetrahydro-pyrrolo[3,2,1-ij]quinolin-4-one] — lower, 186 °C
- O=C1CCc2cc(-c3cncc4ccccc34)cc3c2N1CCC3 [Example 20, 9-Isoquinolin-4-yl-1,2,6,7-tetrahydro-5H-pyrido[3,2,1-ij]quinolin-3-one] — lower, 159 °C
- CCOc1cncc(-c2cc3c4c(c2)CCN4C(=O)CC3)c1 [Example 25, 8-(5-Ethoxypyridin-3-yl)-1,2,5,6-tetrahydro-pyrrolo[3,2,1-ij]quinolin-4-one] — lower, 172 °C

With `CN1CC(=O)Nc2ccc(-c3cccnc3)cc21` [Example 57, 4-Methyl-6-(pyridin-3-yl)-3,4-dihydroquinoxalin-2(1H)-one] the melting point was over 300 °C.
`O=C1CNc2cc(-c3cncc4ccccc34)ccc2N1` [Example 56, 6-(Isoquinolin-4-yl)-3,4-dihydroquinoxalin-2(1H)-one] showed a melting point of over 300 °C.
Work on `O=C1CCc2cc(-c3cncc(O)c3)cc3c2N1CC3` (as salt: HCl) [Example 23, 8-(5-Hydroxypyridin-3-yl)-1,2,5,6-tetrahydro-pyrrolo[3,2,1-ij]quinolin-4-one] yielded a melting point of over 300 °C.
